According to publication PMC12000319, “Proton conductance by human uncoupling protein 1 is inhibited by purine and pyrimidine nucleotides” (The EMBO Journal, 2025):
Several values for one entry are separate records, joined by “and”; a condition that tells them apart may be missing. Identical values can stand only once. Like-named read-outs stand apart in the source and are kept apart here.

Legend:
UCP1 [1] = molecular target: T1, UCP1 (Homo sapiens, UniProt P25874); assay: Differential scanning fluorimetry (nanoDSF) thermal stability shift assay; format: binding; details: for ΔTm at 1000 µM: read-out: thermal shift (ΔTm)
T1 construct: His8 (N, cleaved yes); Factor Xa protease cleavage site (N, cleaved yes); made in house; host or cells: Saccharomyces cerevisiae strain W303.1B
T1 sequence (P25874 1-307): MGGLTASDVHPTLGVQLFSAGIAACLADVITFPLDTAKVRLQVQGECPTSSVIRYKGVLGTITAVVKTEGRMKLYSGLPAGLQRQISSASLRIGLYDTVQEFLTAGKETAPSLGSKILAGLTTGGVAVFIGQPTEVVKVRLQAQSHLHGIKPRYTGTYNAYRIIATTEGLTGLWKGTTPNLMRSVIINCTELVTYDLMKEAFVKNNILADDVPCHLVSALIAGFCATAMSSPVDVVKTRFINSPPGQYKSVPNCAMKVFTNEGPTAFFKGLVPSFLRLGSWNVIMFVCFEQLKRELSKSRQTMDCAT

human DIC (SLC25A10) = molecular target: T2, human DIC (SLC25A10) (Homo sapiens, UniProt Q9UBX3); assay: as above; format: binding; details: 1 mM nucleotide, pH 6.0, single repeats (source data Fig. 4A)
T2 construct: His8 (N, cleaved yes); Factor Xa protease cleavage site (N, cleaved yes); made in house; host or cells: Saccharomyces cerevisiae protease-deficient strain BJ2186
T2 sequence (Q9UBX3 1-287): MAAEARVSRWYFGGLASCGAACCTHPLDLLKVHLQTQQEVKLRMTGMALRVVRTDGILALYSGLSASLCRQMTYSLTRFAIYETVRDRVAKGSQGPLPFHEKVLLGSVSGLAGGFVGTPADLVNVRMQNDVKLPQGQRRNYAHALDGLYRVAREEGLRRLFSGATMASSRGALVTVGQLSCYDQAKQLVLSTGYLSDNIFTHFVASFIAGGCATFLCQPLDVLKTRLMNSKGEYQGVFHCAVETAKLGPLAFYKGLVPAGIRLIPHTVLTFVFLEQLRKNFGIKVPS

UCP1 [2] = molecular target: T1, UCP1; assay: Isothermal titration calorimetry of nucleotide binding; design: isotherm data point (enthalpy change per injection): unit not given here; details: for isotherm data point (enthalpy change per injection): representative isotherm, pH 6.0, 20 °C;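 for all read-outs here: purified human UCP1 in cacodylate buffer with lauryl maltose neopentyl glycol and cardiolipin, titrated with nucleotides, isotherms fitted by one-site model yielding ΔH, Kd and stoichiometry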
UCP1 [3] = system: UCP1; design: method as in Heaton and Nicholls, 1977; Divakaruni et al, 2012; details: whole mitochondria; ref Heaton and Nicholls, 1977; Divakaruni et al, 2012; cited from earlier work
UCP1 [4] = system: UCP1; design: method as in Heaton and Nicholls, 1977; details: ref Heaton and Nicholls, 1977; cited from earlier work

Compound: O=c1ccn([C@@H]2O[C@H](CO[P@@](=O)(O)O[P@@](=O)(O)OP(=O)(O)O)[C@@H](O)[C@H]2O)c(=O)[nH]1 (stereo in doubt) [UTP, uridine triphosphate]
- temperature shift (ΔTm) (UCP1 [1]; 1 mM nucleotide, pH 6.0, detergent-solubilised UCP1, mean of three biological repeats): 15.3 °C
- effect of Ca2+ or Mg2+ on nucleotide binding to UCP1 (ΔTm) (UCP1 [1]; 1 mM nucleotide, pH 6.0, range of Ca2+ or Mg2+ concentrations, until supramaximal concentrations): no difference for either cation
- ΔTm at 1000 µM (UCP1 [1]; pH 6, 1 mM nucleotide, pH 6.0, single repeats (source data Fig. 1D)): 15.7 °C
- ΔTm at 1000 µM (UCP1 [1]; pH 6.5, 1 mM nucleotide, pH 6.5, single repeats (source data Fig. 1D)): 11.1 °C
- ΔTm at 1000 µM (UCP1 [1]; pH 7, 1 mM nucleotide, pH 7.0, single repeats (source data Fig. 1D)): 6.3 °C
- ΔTm at 1000 µM (UCP1 [1]; pH 7.5, 1 mM nucleotide, pH 7.5, single repeats (source data Fig. 1D)): 1.4 °C
- change in apparent melting temperature (ΔTm) of hDIC (human DIC (SLC25A10)): 0.8 and 0.6
- binding affinity to UCP1 (in words) (UCP1 [2]; ITC): intermediary affinities
- isotherm data point (enthalpy change per injection) (UCP1 [2]; Molar ratio (Nucleotide/UCP) 0.120417): -22.5081
- isotherm data point (enthalpy change per injection) (UCP1 [2]; Molar ratio (Nucleotide/UCP) 0.181226): -22.8003
- isotherm data point (enthalpy change per injection) (UCP1 [2]; Molar ratio (Nucleotide/UCP) 0.242439): -21.4037
- isotherm data point (enthalpy change per injection) (UCP1 [2]; Molar ratio (Nucleotide/UCP) 0.304059): -20.9646
- isotherm data point (enthalpy change per injection) (UCP1 [2]; Molar ratio (Nucleotide/UCP) 0.366087): -21.4794
- isotherm data point (enthalpy change per injection) (UCP1 [2]; Molar ratio (Nucleotide/UCP) 0.428528): -19.8691
- isotherm data point (enthalpy change per injection) (UCP1 [2]; Molar ratio (Nucleotide/UCP) 0.491383): -17.9061
- isotherm data point (enthalpy change per injection) (UCP1 [2]; Molar ratio (Nucleotide/UCP) 0.554656): -18.3443
- isotherm data point (enthalpy change per injection) (UCP1 [2]; Molar ratio (Nucleotide/UCP) 0.618348): -16.1153
- isotherm data point (enthalpy change per injection) (UCP1 [2]; Molar ratio (Nucleotide/UCP) 0.682464): -14.9337
- isotherm data point (enthalpy change per injection) (UCP1 [2]; Molar ratio (Nucleotide/UCP) 0.747006): -12.0255
- isotherm data point (enthalpy change per injection) (UCP1 [2]; Molar ratio (Nucleotide/UCP) 0.811976): -11.5031
- isotherm data point (enthalpy change per injection) (UCP1 [2]; Molar ratio (Nucleotide/UCP) 0.877378): -10.3349
- isotherm data point (enthalpy change per injection) (UCP1 [2]; Molar ratio (Nucleotide/UCP) 0.943214): -7.729
- isotherm data point (enthalpy change per injection) (UCP1 [2]; Molar ratio (Nucleotide/UCP) 1.00949): -6.6657
- isotherm data point (enthalpy change per injection) (UCP1 [2]; Molar ratio (Nucleotide/UCP) 1.0762): -5.447
- isotherm data point (enthalpy change per injection) (UCP1 [2]; Molar ratio (Nucleotide/UCP) 1.14336): -3.759
- isotherm data point (enthalpy change per injection) (UCP1 [2]; Molar ratio (Nucleotide/UCP) 1.21096): -3.295
- isotherm data point (enthalpy change per injection) (UCP1 [2]; Molar ratio (Nucleotide/UCP) 1.27901): -1.9786
- isotherm data point (enthalpy change per injection) (UCP1 [2]; Molar ratio (Nucleotide/UCP) 1.34751): -1.408
- isotherm data point (enthalpy change per injection) (UCP1 [2]; Molar ratio (Nucleotide/UCP) 1.41647): -0.3952
- isotherm data point (enthalpy change per injection) (UCP1 [2]; Molar ratio (Nucleotide/UCP) 1.48589): -0.4843
- isotherm data point (enthalpy change per injection) (UCP1 [2]; Molar ratio (Nucleotide/UCP) 1.55577): -0.1953
- isotherm data point (enthalpy change per injection) (UCP1 [2]; Molar ratio (Nucleotide/UCP) 1.62611): -0.1185
- isotherm data point (enthalpy change per injection) (UCP1 [2]; Molar ratio (Nucleotide/UCP) 1.69692): 0.2895
- isotherm data point (enthalpy change per injection) (UCP1 [2]; Molar ratio (Nucleotide/UCP) 1.76819): -0.544
- isotherm data point (enthalpy change per injection) (UCP1 [2]; Molar ratio (Nucleotide/UCP) 1.83995): -0.2075
- isotherm data point (enthalpy change per injection) (UCP1 [2]; Molar ratio (Nucleotide/UCP) 1.91217): -0.08977
- isotherm data point (enthalpy change per injection) (UCP1 [2]; Molar ratio (Nucleotide/UCP) 1.98488): 0.02152
- competition with GDP binding (UCP1 [3]): could only weakly compete with GDP binding
- inhibition of proton conductance (UCP1 [4]): significantly lower than that of purine nucleotides
